Values of other authors, collected in publication PMC10778198, “First-in-Human Dose-Escalation Study of the Novel Oral Depsipeptide Class I-Targeting HDAC Inhibitor Bocodepsin (OKI-179) in Patients with Advanced Solid Tumors” (Cancers, 2023).

System: murine (syngeneic) and human cancer cell line xenograft models
Set-up: method as in PMID 34965958, PMID 31235619
Settings: single agent; colorectal cancer, triple-negative breast cancer, diffuse large B-cell lymphoma models; cited from earlier work

Q: With `CC(C)[C@H](N)C(=O)SCC/C=C/[C@@H]1CC(=O)NCc2nc(cs2)C(=O)NC(C)(C)C(=O)N[C@@H](C(C)C)C(=O)O1` [OKI-179, Bocodepsin] as the compound, how does the antitumor activity read?
A: significant antitumor activity
